Laboratory results published in patent EP4640686A1, “DEGRADER FOR DEGRADING BRD PROTEIN AND PHARMACEUTICAL COMPOSITION CONTAINING SAME” (Innocure Therapeutics, Inc., priority 2022, dated 2024).
Where two headings read alike, the source gives them in different places.

Columns and labels:
Type in all cases: cell-based
BRD4-NUT = biological target: T1, BRD4-NUT (Homo sapiens, UniProt O60885+Q86Y26); test: BRD4-NUT protein degradation by western blotting in RPMI2650 cells (24 h treatment); conditions: RPM12650, read-out: BRD4-NUT (DC50)
T1 construct: endogenous in cells; host or cells: RPMI2650
Experimental: (§1) The synthesized compounds were prepared with a 10 mM or 50 mM raw material solution dissolved in DMSO [dimethyl sulfoxide], and were diluted sequentially and treated. [RPMI2650] and [SNU2972] were cultivated under specific conditions.
(§2) To evaluate the resolution of PROTAC for BRD4 expressed in cells, cells were dispensed in a concentration of 5 X 10^5 cells/well in a 6-well plate, and the sample was treated for 24 hours. […] Protein expression was normalized based on the expression value of β or GAPDH, and protein expression in each sample was measured as % based on 100% of samples treated with 0.1% DMSO vehicle. Protein expression was quantified using Image J program. Change in protein expression volume by compound treatment (DC50: concentration of compounds where 50% protein expression inhibition is achieved) was calculated using the GraphicPad Prism 8.0 software.

RPMI2650 = test: Cancer cell antiproliferative activity / cell viability in RPMI2650 cells (72 h treatment)
Experimental: The human breast cancer cell line [MDA-MB-231] was cultured in RPMI medium with the addition of 10% fetal bovine serum, penicillin [100U/ml], and streptomycin [[…]]. The synthesized compounds were prepared with a 10 mM or 50 mM raw material solution dissolved in DMSO [dimethyl sulfoxide], and were diluted sequentially and treated. [RPMI2650] and [SNU2972] were cultivated under specific conditions.
To observe cell growth inhibition, cells were dispensed in a concentration of 5,000 cells/well in a 96-well plate, and samples prepared at various concentrations were treated for 72 hours. The IC50 value (the concentration of the compound achieving 50% cytostaticism) is the average value of the results of three independent measurements.

BRD4 = BRD4 (Homo sapiens, UniProt O60885); test: BRD4 protein degradation by western blotting in RPMI2650 cells (24 h treatment); design: To evaluate the resolution of PROTAC for BRD4 expressed in cells; endogenous in cells; host or cells: RPMI2650; conditions: RPM12650, read-out: BRD4 (DC50)
Experimental: as §1, §2

[1] = Homo sapiens, RPMI-2650, RPM12650, read-out: Cell Viatility (IC50)
[2] = RPM12650, read-out: Cell Viatility (IC50)
[3] = Homo sapiens, RPMI-2650, 72 h, RPM12650, read-out: Cell Viatility (IC50)

SMILES: CC[C@@H]1c2nnc(C)n2-c2cnc(Nc3ccc(C(=O)NCCNc4cccc5cnn(C6CCC(=O)NC6=O)c(=O)c45)cc3OC)nc2N1CC1CCCCC1 (stereo partly drawn) [ICT-0001558, 4-(((R)-5-(cyclohexylmethyl)-4-ethyl-1-methyl-4,5-dihydro-[1,2,4]triazolo[4,3-f]pteridine-7-yl)amino)N-(2-((3-(2,6-dioxopiperidin-3-yl)4-oxo-3,4-dihydroptalazine-5-yl)amino)ethyl)-3-methoxybenzamide]
- DC50 (BRD4-NUT): < 100 nM
- IC50 (RPMI2650; [1]): > 1000 nM
- DC50 (BRD4): < 100 nM

SMILES: CCC1c2nnc(C)n2-c2cnc(Nc3ccc(C(=O)NC4CCN(CCN5CCN(c6ccc7c(=O)n(C8CCC(=O)NC8=O)nc(C)c7c6)CC5)CC4)cc3OC)nc2N1CC1CCCCC1 [ICT-0001560, 4-{[(4S)-5-(cyclohexylmethyl)-4-ethyl-1-methyl-4H,5H-[1,2,4]triazolo[4,3-f]pteridine-7-yl]amino}-N-[1-(2-{4-[2-(2,6-dioxopiperidine-3-yl)-4-methyl-1-oxo-1,2-dihydroptalazine-6-yl]piperazine-1-yl}ethyl)piperidine-4-yl]-3-methoxybenzamide]
- DC50 (BRD4-NUT): < 100 nM
- IC50 (RPMI2650; [1]): > 1000 nM
- DC50 (BRD4): < 100 nM

SMILES: CCC1c2nnc(C)n2-c2cnc(Nc3ccc(C(=O)NC4CCN(CCN5CCN(c6ccc(NC7CCC(=O)NC7=O)cc6F)CC5)CC4)cc3OC)nc2N1CC1CCCCC1 [ICT-0001561, 4-{[(4S)-5-(cyclohexylmethyl)-4-ethyl-1-methyl-4H,5H-[1,2,4]triazolo[4,3-f]pteridine-7-yl]amino}-N-{1-[2-(4-{4-[(2,6-dioxopiperidin-3-yl)amino]-2-fluorophenyl}piperazine-1-il)ethyl]piperidine-4-yl}-3-methoxybenzamide]
- DC50 (BRD4-NUT): < 100 nM
- IC50 (RPMI2650; [1]): > 1000 nM
- DC50 (BRD4): < 100 nM

SMILES: CC[C@H]1c2nnc(C)n2-c2cnc(Nc3ccc(C(=O)NC4CCN(CCC5CCN(c6ccc(NC7CCC(=O)NC7=O)cc6F)CC5)CC4)cc3OC)nc2N1CC1CCCCC1 (stereo partly drawn) [ICT-0001562, 4-{[(4S)-5-(cyclohexylmethyl)-4-ethyl-1-methyl-4H,5H-[1,2,4]triazolo[4,3-f]pteridine-7-yl]amino}-N-{1-[2-(1-{4-[(2,6-dioxopiperidin-3-yl)amino]-2-fluorophenyl}piperidine-4-yl)ethyl]piperidine-4-yl}-3-methoxybenzamide]
- DC50 (BRD4-NUT): > 1000 nM
- IC50 (RPMI2650; [2]): 100 to 1000 nM
- DC50 (BRD4): > 1000 nM

SMILES: CC[C@@H]1c2nnc(C)n2-c2cnc(Nc3ccc(C(=O)NC4CCN(C(=O)CN5CCN(c6ccc7c(=O)n(C8CCC(=O)NC8=O)nc(C)c7c6)CC5)CC4)cc3OC)nc2N1CC1CCCCC1 (stereo partly drawn) [ICT-0001563]
- DC50 (BRD4-NUT): < 100 nM
- IC50 (RPMI2650; [1]): > 1000 nM
- DC50 (BRD4): < 100 nM

SMILES: CC[C@H]1c2nnc(C)n2-c2cnc(Nc3ccc(C(=O)NC4CCN(CCC5CCN(c6ccc(NC7CCC(=O)NC7=O)cc6F)CC5)CC4)cc3OC)nc2N1CC1CCCCC1 (stereo partly drawn) [ICT-0001564, 4-{[(4S)-5-(cyclohexylmethyl)-4-ethyl-1-methyl-4H,5H-[1,2,4]triazolo[4,3-f]pteridine-7-yl]amino}-N-{1-[2-(1-{4-[(2,6-dioxopiperidin-3-yl)amino]-2-fluorophenyl}piperidine-4-yl)ethyl]piperidine-4-yl}-3-methoxybenzamide]
- DC50 (BRD4-NUT): > 1000 nM
- IC50 (RPMI2650; [2]): > 1000 nM
- DC50 (BRD4): < 100 nM

SMILES: CC[C@@H]1c2nnc(C)n2-c2cnc(Nc3ccc(C(=O)NC4CCN(c5ccc(NC6CCC(=O)NC6=O)cc5F)CC4)cc3OC)nc2N1CC1CCCCC1 (stereo partly drawn) [ICT-0001566, 4-{[(4R)-5-(cyclohexylmethyl)-4-ethyl-1-methyl-4H,5H-[1,2,4]triazolo[4,3-f]pteridine-7-yl]amino}-N-(1-{4-[(2,6-dioxopiperidine-3-yl)amino]-2-fluorophenyl}piperidine-4-yl)-3-methoxybenzamide]
- DC50 (BRD4-NUT): < 100 nM
- IC50 (RPMI2650; [3]): > 1000 nM
- DC50 (BRD4): < 100 nM

SMILES: CC[C@@H]1c2nnc(C)n2-c2cnc(Nc3ccc(C(=O)NC4CCN(c5ccc6c(=O)n(C7CCC(=O)NC7=O)nc(C)c6c5)CC4)cc3OC)nc2N1CC1CCCCC1 (stereo partly drawn) [ICT-0001567, 4-{[(4R)-5-(cyclohexylmethyl)-4-ethyl-1-methyl-4H,5H-[1,2,4]triazolo[4,3-f]pteridine-7-yl]amino}-N-{1-[2-(2,6-dioxopiperidine-3-yl)-4-methyl-1-oxo-1,2-dihydroptalazine-6-yl]piperidine-4-yl}-3-methoxybenzamide]
- DC50 (BRD4-NUT): > 1000 nM
- IC50 (RPMI2650; [1]): > 1000 nM
- DC50 (BRD4): > 1000 nM

SMILES: CC[C@@H]1c2nnc(C)n2-c2cnc(Nc3ccc(C(=O)NC4CCN(CCCN5CCN(c6ccc7c(=O)n(C8CCC(=O)NC8=O)nc(C)c7c6)CC5)CC4)cc3OC)nc2N1CC1CCCCC1 (stereo partly drawn) [ICT-0001568, 4-{[(4R)-5-(cyclohexylmethyl)-4-ethyl-1-methyl-4H,5H-[1,2,4]triazolo[4,3-f]phteridine-7-yl]amino}-N-[1-(3-{4-[2-(2,6-dioxopiperidin-3-yl)-4-methyl-1-oxo-1,2-dihydroptalazine-6-yl}piperazine-1-il}piperidine-4-yl]piperidine-4-yl]-3-methoxybenzamide]
- DC50 (BRD4-NUT): > 1000 nM
- IC50 (RPMI2650; [1]): > 1000 nM
- DC50 (BRD4): < 100 nM

SMILES: CC[C@@H]1c2nnc(C)n2-c2cnc(Nc3ccc(C(=O)NC4CCN(Cc5ccc(NC6CCC(=O)NC6=O)cc5)CC4)cc3OC)nc2N1CC1CCCCC1 (stereo partly drawn) [ICT-0001569, 4-{[(4R)-5-(cyclohexylmethyl)-4-ethyl-1-methyl-4H,5H-[1,2,4]triazolo[4,3-f]pteridine-7-yl]amino}-N-[1-({4-[(2,6-dioxopiperidin-3-yl)amino]phenyl}methyl)piperidine-4-yl]-3-methoxybenzamide]
- DC50 (BRD4-NUT): > 1000 nM
- IC50 (RPMI2650; [3]): > 1000 nM
- DC50 (BRD4): > 1000 nM

SMILES: CC[C@@H]1c2nnc(C)n2-c2cnc(Nc3ccc(C(=O)NC4CCN(CCOCCOc5ccc(NC6CCC(=O)NC6=O)cc5F)CC4)cc3OC)nc2N1CC1CCCCC1 (stereo partly drawn) [ICT-0001570, 4-{[(4R)-5-(cyclohexylmethyl)-4-ethyl-1-methyl-4H,5H-[1,2,4]triazolo[4,3-f]pteridine-7-yl]amino}-N-{1-[2-(2-{4-[(2,6-dioxopiperidin-3-yl)amino]-2-fluorophenoxy}ethoxy)ethyl]piperidine-4-yl}-3-methoxybenzamide]
- DC50 (BRD4-NUT): > 1000 nM
- IC50 (RPMI2650; [3]): > 1000 nM
- DC50 (BRD4): > 1000 nM

SMILES: CC[C@@H]1c2nnc(C)n2-c2cnc(Nc3ccc(C(=O)NC4CCN(C(=O)CCCCN5CCN(c6ccc(NC7CCC(=O)NC7=O)cc6F)CC5)CC4)cc3OC)nc2N1CC1CCCCC1 (stereo partly drawn) [ICT-0001571, 4-{[(4R)-5-(cyclohexylmethyl)-4-ethyl-1-methyl-4H,5H-[1,2,4]triazolo[4,3-f]pteridine-7-yl]amino}-N-{1-[5-(4-{4-[(2,6-dioxopiperidin-3-yl)amino]-2-fluorophenyl}piperazine-1-yl)pentanoyl]piperidine-4-yl}-3-methoxybenzamide]
- DC50 (BRD4-NUT): > 1000 nM
- IC50 (RPMI2650; [3]): > 1000 nM
- DC50 (BRD4): > 1000 nM

SMILES: CC[C@@H]1c2nnc(C)n2-c2cnc(Nc3ccc(C(=O)NC4CCN(CCCN5CCN(c6ccc(NC7CCC(=O)NC7=O)cc6F)CC5)CC4)cc3OC)nc2N1CC1CCCCC1 (stereo partly drawn) [ICT-0001572, 4-{[(4R)-5-(cyclohexylmethyl)-4-ethyl-1-methyl-4H,5H-[1,2,4]triazolo[4,3-f]pteridine-7-yl]amino}-N-{1-[3-(4-{4-[(2,6-dioxopiperidin-3-yl)amino]-2-fluorophenyl}piperazine-1-yl)propyl]piperidine-4-yl}-3-methoxybenzamide]
- DC50 (BRD4-NUT): > 1000 nM
- IC50 (RPMI2650; [3]): > 1000 nM
- DC50 (BRD4): > 1000 nM
